Source: patent US9035056B2, “Pyrido[4,3-b]indole and pyrido[3,4-b]indole derivatives and methods of use” (Medivation Technologies, Inc., priority 2011, dated 2015)

Assays:
[1] = molecular target: T1, rat adrenergic α1B receptor (Rattus norvegicus, UniProt P15823); assay: Adrenergic α1B radioligand binding ([3H]Prazosin); conditions: 0.1 μM compound; for inhibition at 0.1 µM: read-out: Percentage inhibition of ligand binding, Adrenergic α1B; for Percentage inhibition of ligand binding, Adrenergic α1B: 0.1 µM
T1 construct: rat adrenergic α1B receptor obtained from Wistar Rat liver; from tissue; host or cells: Wistar rat liver
T1 sequence (P15823 1-515): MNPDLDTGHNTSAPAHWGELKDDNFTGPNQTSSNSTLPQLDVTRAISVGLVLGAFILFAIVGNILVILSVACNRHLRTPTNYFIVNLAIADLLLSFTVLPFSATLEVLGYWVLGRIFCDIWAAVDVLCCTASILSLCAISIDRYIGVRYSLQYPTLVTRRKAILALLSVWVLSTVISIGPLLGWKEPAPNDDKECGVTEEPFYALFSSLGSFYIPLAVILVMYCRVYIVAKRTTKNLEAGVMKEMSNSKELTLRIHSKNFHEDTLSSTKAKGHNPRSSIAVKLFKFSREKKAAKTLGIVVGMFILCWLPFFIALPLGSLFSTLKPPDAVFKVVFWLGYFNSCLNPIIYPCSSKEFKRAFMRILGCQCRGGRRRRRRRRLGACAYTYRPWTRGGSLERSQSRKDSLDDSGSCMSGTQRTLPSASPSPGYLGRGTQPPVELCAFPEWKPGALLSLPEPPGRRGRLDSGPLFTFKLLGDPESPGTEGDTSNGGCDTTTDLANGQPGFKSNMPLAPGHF
Experimental: To evaluate in radioligand binding assays the activity of compounds of the invention, rat adrenergic α1B receptor obtained from Wistar Rat liver (Garcia-S'ainz, J. et al, Biochem. Biophys. Res. Commun. 186:760, 1992; Michel, A. et al, Br. J. Pharmacol. 98:883, 1989) in a modified Tris-HCl buffer (50 mM Tris-HCl buffer, pH 7.4, 0.5 mM EDTA) was used. Compounds of the invention were incubated with 0.25 nM [^3H]Prazosin for 60 min at 25° C. Non-specific binding was estimated in the presence of 10 μM phentolamine. Receptor proteins were filtered and washed, the filters were then counted to determine [^3H]Prazosin specifically bound. Compounds were screened at 1 μM or lower, using 1% DMSO as vehicle. Biochemical assay results are presented as the percent inhibition of specific binding in Table 3.

[2] = molecular target: T2, human recombinant serotonin (5-Hydroxytryptamine) 5-HT2A receptor (Homo sapiens, UniProt P28223); assay: Serotonin 5-HT2A radioligand binding ([3H]Ketanserin); conditions: 0.1 μM compound; read-out: Percentage inhibition of ligand binding, Serotonin 5-HT2A
T2 construct: expressed in transfected cells; host or cells: CHO-K1
Experimental: To evaluate in radioligand binding assays the activity of compounds of the invention, human recombinant serotonin (5-Hydroxytryptamine) 5-HT2A receptor expressed in Chinese hamster ovary (CHO) K1 cells (Bonhaus, D. et al, Br. J. Pharmacol. 115:622, 1995; Saucier, C. et al, J. Neurochem. 68:1998, 1997) in a 50 mM Tris-HCl buffer, pH 7.4, was used. Compounds of the invention were incubated with 0.5 nM [^3H]Ketanserin for 60 min at 25° C. Non-specific binding was estimated in the presence of 1 μM Mianserin. Receptor proteins were filtered and washed, the filters were then counted to determine [^3H]Ketanserin specifically bound. Compounds were screened at 1 μM or lower, using 1% DMSO as vehicle. Biochemical assay results are presented as the percent inhibition of specific binding in Table 5.

[3] = molecular target: T3, human recombinant serotonin (5-Hydroxytryptamine) 5-HT2C receptor (Homo sapiens, UniProt P28335); assay: Serotonin 5-HT2C radioligand binding ([3H]Mesulergine); conditions: 0.1 μM compound; for inhibition at 0.1 µM: read-out: Percentage inhibition of ligand binding, Serotonin 5-HT2C; for Percentage inhibition of ligand binding, Serotonin 5-HT2C: 0.1 µM
T3 construct: expressed in transfected cells; host or cells: CHO-K1
T3 sequence (P28335 33-458): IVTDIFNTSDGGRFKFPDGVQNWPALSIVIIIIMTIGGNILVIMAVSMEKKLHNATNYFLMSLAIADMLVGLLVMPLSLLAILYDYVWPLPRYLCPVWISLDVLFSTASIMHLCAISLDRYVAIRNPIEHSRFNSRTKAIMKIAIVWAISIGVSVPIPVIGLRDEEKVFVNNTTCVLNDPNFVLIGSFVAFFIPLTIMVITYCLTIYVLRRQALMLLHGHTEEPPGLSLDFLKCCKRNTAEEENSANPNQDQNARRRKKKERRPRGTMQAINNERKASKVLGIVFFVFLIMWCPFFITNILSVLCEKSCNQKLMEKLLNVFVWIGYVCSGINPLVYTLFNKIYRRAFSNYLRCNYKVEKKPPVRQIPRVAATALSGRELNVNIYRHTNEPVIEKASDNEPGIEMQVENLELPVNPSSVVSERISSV
Experimental: To evaluate in radioligand binding assays the activity of compounds of the invention, human recombinant serotonin (5-Hydroxytryptamine) 5-HT2C receptor expressed in Chinese hamster ovary (CHO) K1 cells (Wolf, W. et al, J. Neurochem. 69:1449, 1997) in a modified Tris-HCl buffer (50 mM Tris-HCl, pH 7.4, 0.1% Ascorbic Acid, 10 μM Pargyline) was used. Compounds of the invention were incubated with 1 nM [^3H]Mesulergine for 60 min at 25° C. Non-specific binding was estimated in the presence of 1 μM Mianserin. Receptor proteins were filtered and washed, the filters were then counted to determine [^3H]Mesulergine specifically bound. Compounds were screened at 1 μM or lower, using 1% DMSO as vehicle. Biochemical assay results are presented as the percent inhibition of specific binding in Table 5.

[4] = molecular target: T4, human recombinant serotonin (5-Hydroxytryptamine) 5-HT5A receptor (Homo sapiens, UniProt P47898); assay: Serotonin 5-HT5A radioligand binding ([3H]LSD); conditions: 0.1 μM compound; read-out: Percentage inhibition of ligand binding, Serotonin 5-HT5A
T4 construct: expressed in transfected cells; host or cells: CHO-K1
Experimental: To evaluate in radioligand binding assays the activity of compounds of the invention, human recombinant serotonin (5-Hydroxytryptamine) 5-HT5A receptor expressed in Chinese hamster ovary (CHO) K1 cells (Rees, S. et al, FEBS Lett. 355:242, 1994) in a modified Tris-HCl buffer (50 mM Tris-HCl, pH 7.4, 10 mM MgCl2, 0.5 mM EDTA) was used. Compounds of the invention were incubated with 1.7 nM [^3H]Lysergic acid diethylamide (LSD) for 60 min at 37° C. Non-specific binding was estimated in the presence of 100 μM Serotonin (5-HT). Receptor proteins were filtered and washed, the filters were counted to determine [^3H]LSD specifically bound. Compounds were screened at 1 μM or lower, using 1% DMSO as vehicle. Biochemical assay results are presented as the percent inhibition of specific binding in Table 5.

T4 sequence (P47898 whole entry): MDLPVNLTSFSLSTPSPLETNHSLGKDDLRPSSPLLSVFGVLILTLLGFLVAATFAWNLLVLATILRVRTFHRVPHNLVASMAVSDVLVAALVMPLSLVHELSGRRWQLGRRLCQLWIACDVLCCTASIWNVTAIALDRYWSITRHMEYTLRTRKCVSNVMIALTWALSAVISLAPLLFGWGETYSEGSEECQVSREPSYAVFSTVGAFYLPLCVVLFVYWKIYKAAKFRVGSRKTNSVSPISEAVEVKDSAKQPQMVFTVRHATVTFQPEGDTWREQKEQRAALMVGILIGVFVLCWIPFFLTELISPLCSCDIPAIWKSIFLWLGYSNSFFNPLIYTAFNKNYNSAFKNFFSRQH
T2 sequence (P28223 whole entry): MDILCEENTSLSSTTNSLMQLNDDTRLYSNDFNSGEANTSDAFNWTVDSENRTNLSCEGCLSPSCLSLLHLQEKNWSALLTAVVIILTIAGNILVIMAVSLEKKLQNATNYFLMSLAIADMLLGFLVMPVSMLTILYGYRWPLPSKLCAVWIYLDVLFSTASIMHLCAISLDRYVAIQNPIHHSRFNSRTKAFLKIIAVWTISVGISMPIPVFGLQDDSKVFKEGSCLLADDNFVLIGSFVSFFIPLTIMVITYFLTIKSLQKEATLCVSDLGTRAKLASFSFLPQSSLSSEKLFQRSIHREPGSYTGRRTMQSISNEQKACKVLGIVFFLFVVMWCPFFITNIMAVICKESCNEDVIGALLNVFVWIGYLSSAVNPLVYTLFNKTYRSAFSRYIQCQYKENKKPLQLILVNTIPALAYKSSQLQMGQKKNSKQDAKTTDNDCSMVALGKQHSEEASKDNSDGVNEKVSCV

Compound | inhibition at 0.1 µM [1] | inhibition at 0.1 µM [2] | inhibition at 0.1 µM [3] | inhibition at 0.1 µM [4] | Percentage inhibition of ligand binding, Adrenergic α1B [1] | Percentage inhibition of ligand binding, Serotonin 5-HT2C [3]
Cc1ccc2c(c1)c1c(n2/C=C2/CCCc3ccccc32)CCN(C)C1 [i-2] | 85% | 99% | 100% | 101% | – | –
Cc1ccc2c(c1)c1c(n2CC2(O)CCCc3cnccc32)CCN(C)C1 (single isomer, unassigned) [ii-74b] | – | – | – | – | 83% | 53%
Cc1ccc2c(c1)c1c(n2CC2(O)CCCc3cnccc32)CCN(C)C1 (single isomer, unassigned) [ii-74a] | – | – | – | – | 12% | 28%
Cc1ccc2c(c1)c1c(n2/C=C2\CCCc3ccccc32)CCN(C)C1 [i-3] | 66% | 100% | 100% | 91% | – | –
Cc1ccc2c(c1)c1c(n2CC2(O)CCCc3ccncc32)CCN(C)C1 (single isomer, unassigned) [ii-113a] | – | – | 37% | – | 5% | –
Cc1ccc2c(c1)c1c(n2CC2(O)CCCc3ncccc32)CCN(C)C1 (single isomer, unassigned) [ii-112b] | – | – | – | – | 14% | 37%
Cc1ccc2c(c1)c1c(n2CC2(O)CCCc3ncccc32)CCN(C)C1 (single isomer, unassigned) [ii-112a] | – | – | 42% | – | 79% | –
